Test [1] deals with T1, Pisum sativum agglutinin (PSA, pea lectin) (Lathyrus oleraceus, UniProt P02867).
T1 sequence (P02867 31-217): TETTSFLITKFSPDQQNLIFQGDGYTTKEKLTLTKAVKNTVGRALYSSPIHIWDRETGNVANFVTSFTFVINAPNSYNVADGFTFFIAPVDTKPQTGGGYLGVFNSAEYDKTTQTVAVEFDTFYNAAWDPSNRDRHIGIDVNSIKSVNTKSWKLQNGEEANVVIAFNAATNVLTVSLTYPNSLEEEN
T1 sequence (P02867 218-275): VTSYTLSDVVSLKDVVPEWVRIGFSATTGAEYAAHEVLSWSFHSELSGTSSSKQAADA
Put plainly: ITC at […] K. Type of test: binding.

In test [2] the target is T1, Pisum sativum agglutinin (PSA, pea lectin). Put plainly: ITC at […] K. Type of test: binding. This is another data set of the same source.

The values that follow come from PMC5435455 (ACS Chemical Biology, 2017).

Read-outs that look alike come from different tables or passages of the source.

Broadly, the Kd is the free concentration of one partner at which half of the binding sites on the other are occupied at equilibrium, for simple one-to-one binding. Lower therefore signals tighter binding.

`CO[C@H]1O[C@H](CO)[C@@H](O)[C@H](O)[C@@H]1O` [compound 1, methyl α-D-mannopyranoside]: binding in test [1] was put at a Kd of 806 ± 32 µM.

Turning to `OC[C@H]1O[C@H](OC[C@H]2O[C@H](O)[C@@H](O)[C@@H](O[C@H]3O[C@H](CO)[C@@H](O)[C@H](O)[C@@H]3O)[C@@H]2O)[C@@H](O)[C@@H](O)[C@@H]1O` [compound 2, 3,6-di-O-(α-D-mannopyranosyl)-α-D-mannopyranose], the affinity in test [2], expressed as Kd, was 621 ± 11 µM.
